Some test systems named below: SR leukemia; LOX IMVI melanoma; HOP-92 NSCLC; NCI-H23 lung; 786-0 renal; CAKI-1 renal; A549 NSCLC; SF-268 CNS; U251 CNS.
What all share (test): NCI tumour cell line growth inhibition, 48 h

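96-well plates; 48 h exposure; 5 concentrations. Endpoints by linear interpolation between flanking doses. Not reached: highest tested concentration assigned. Here, GI50 denotes the concentration required for 50% inhibition of growth. Definition used: TGI = concentration required for complete inhibition of growth.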

For the molecule `CCOC(=O)c1c(C(F)(F)F)oc2c1ccc1nc3nonc3nc12`, the TGI was found to be 17.7 µM in the assay on SR leukemia; 31.8 µM in the assay on LOX IMVI melanoma; 27.3 µM in the assay on HOP-92 NSCLC; 18.3 µM with NCI-H23 lung; 25.3 µM with 786-0 renal; 27.3 µM with CAKI-1 renal. The TGI was 35 µM in the assay with A549 NSCLC, 38.6 µM in the assay on SF-268 CNS and 29.1 µM with U251 CNS.
Regarding `CC(C)NC(=O)O/N=C1\CCC2[C@@H]3CC=C4C[C@@H](OC(=O)NC(C)C)CC[C@]4(C)C3CC[C@]12C` (some centres undefined), the TGI in the assay on SR leukemia came out at 7.69 µM; in the assay on LOX IMVI melanoma it was 2.27 µM; in the assay with HOP-92 NSCLC, 5.02 µM; in the assay on NCI-H23 lung, 3.79 µM; in the assay on 786-0 renal, 4.01 µM; with CAKI-1 renal, 4.29 µM. For the same molecule, the TGI in the assay on A549 NSCLC came to 5.11 µM; with SF-268 CNS it was 3.22 µM; in the assay with U251 CNS it was 2.8 µM.
`O=C1c2ccccc2C(=O)c2sc(Nc3ccc(Cl)c(Cl)c3)nc21`: the TGI amounted to 11.5 µM in the assay on SR leukemia; 4.73 µM in the assay with LOX IMVI melanoma; 28 µM in the assay with HOP-92 NSCLC; 10.5 µM with NCI-H23 lung; 3.59 µM with 786-0 renal; 8.83 µM in the assay on CAKI-1 renal. The results for the TGI in the assay on A549 NSCLC, in the assay on SF-268 CNS and in the assay with U251 CNS were 54.5 µM, 12.8 µM and 6.05 µM, respectively.
With `O=C1CCC(=O)C(C(=O)CCC(=O)Nc2cccc(Cl)c2)C1` (centres undefined), the TGI in the assay with SR leukemia, in the assay on LOX IMVI melanoma, with HOP-92 NSCLC, in the assay on NCI-H23 lung, in the assay on 786-0 renal and in the assay on CAKI-1 renal was more than 100 µM in each case. The TGI in the assay on A549 NSCLC and in the assay on U251 CNS was more than 100 µM throughout.
As to `OC1C2C=CCC1CCC2` (centres undefined), the TGI with SR leukemia, in the assay on LOX IMVI melanoma, in the assay with HOP-92 NSCLC, with NCI-H23 lung, in the assay on 786-0 renal and with CAKI-1 renal was more than 100 µM throughout. For the same molecule, the TGI with A549 NSCLC, in the assay on SF-268 CNS and in the assay with U251 CNS was more than 100 µM throughout.
Turning to `COC(=O)C(=O)C1CCCCC(C2=NC3NN=C(N)N3C2=O)C1=O` (centres undefined), the TGI with SR leukemia, with LOX IMVI melanoma, in the assay with HOP-92 NSCLC, with NCI-H23 lung, in the assay with 786-0 renal and in the assay with CAKI-1 renal was more than 100 µM each time. Also, the TGI with A549 NSCLC, with SF-268 CNS and in the assay with U251 CNS was more than 100 µM in each case.
Consider `OC(c1ccccc1)c1c(-c2ccccc2)oc(-c2ccccc2)c1C(O)c1ccccc1` (centres undefined), for which the TGI stood at 62.9 µM in the assay on SR leukemia; 25.2 µM in the assay with LOX IMVI melanoma; 26.5 µM in the assay with HOP-92 NSCLC; 23.3 µM in the assay with NCI-H23 lung; 21 µM in the assay with 786-0 renal; 30.4 µM in the assay on CAKI-1 renal. The TGI in the assay on A549 NSCLC came out at 20.5 µM; with SF-268 CNS, 25.5 µM; in the assay on U251 CNS, 27.6 µM.
On to `O=C1C2Nc3ccccc3SC2C(=O)N1c1cccc([N+](=O)[O-])c1` (centres undefined), for which the TGI in the assay on SR leukemia, in the assay with LOX IMVI melanoma, in the assay on HOP-92 NSCLC, in the assay on NCI-H23 lung, in the assay with 786-0 renal and in the assay on CAKI-1 renal was more than 100 µM in each case. The TGI in the assay with A549 NSCLC, with SF-268 CNS and with U251 CNS was more than 100 µM in each case.
In the case of `c1cnc2c(c1)Nc1cnncc1S2`, the TGI with SR leukemia, in the assay with LOX IMVI melanoma, with HOP-92 NSCLC, with NCI-H23 lung, in the assay on 786-0 renal and with CAKI-1 renal was more than 100 µM each time. The TGI with A549 NSCLC, with SF-268 CNS and in the assay with U251 CNS was more than 100 µM each time.
As to `C=C1CC(C/C=C(\C)CC2CC(=C)C(=O)O2)OC1=O` (centres undefined), the TGI in the assay on SR leukemia, in the assay on LOX IMVI melanoma, with HOP-92 NSCLC, in the assay on NCI-H23 lung, in the assay on 786-0 renal and with CAKI-1 renal was more than 100 µM in each case. Also, the TGI in the assay on A549 NSCLC, with SF-268 CNS and in the assay with U251 CNS was more than 100 µM throughout.
For the molecule `CC(C)(C)C(=O)[CH-]C(=O)C(F)(F)C(F)(F)C(F)(F)F.CC(C)(C)C(=O)[CH-]C(=O)C(F)(F)C(F)(F)C(F)(F)F.[O-]CC1OC(O)C(O)C(O)C1O.[O-]CC1OC(O)C(O)C(O)C1O.[Ti+4]`, the TGI is more than 100 µM with SR leukemia; more than 100 µM in the assay on LOX IMVI melanoma; 96.9 µM with HOP-92 NSCLC; more than 100 µM in the assay with NCI-H23 lung; more than 100 µM in the assay on 786-0 renal; more than 100 µM with CAKI-1 renal. The TGI in the assay with A549 NSCLC, in the assay with SF-268 CNS and in the assay on U251 CNS was more than 100 µM throughout.
As for `O=[N+]([O-])c1cc(/C=N/NS(=O)(=O)c2ccc(F)cc2)c(O)c([N+](=O)[O-])c1`, the TGI is 41.2 µM in the assay with SR leukemia; more than 100 µM in the assay with LOX IMVI melanoma; more than 100 µM in the assay on HOP-92 NSCLC; 60.1 µM in the assay on NCI-H23 lung; more than 100 µM with 786-0 renal; more than 100 µM in the assay on CAKI-1 renal. Besides, the TGI with A549 NSCLC was more than 100 µM; in the assay on SF-268 CNS, more than 100 µM; in the assay with U251 CNS, 44.7 µM.
As to `CC(C)(C)C[P+](C)(C)c1ccccc1`, the TGI in the assay with SR leukemia, in the assay on LOX IMVI melanoma, with HOP-92 NSCLC, in the assay on NCI-H23 lung, with 786-0 renal and in the assay with CAKI-1 renal was more than 100 µM throughout. Besides, the TGI in the assay with A549 NSCLC, with SF-268 CNS and in the assay with U251 CNS was more than 100 µM in each case.
For the molecule `CP(C)C.[Ag][I]`, the TGI with SR leukemia, in the assay with LOX IMVI melanoma, with HOP-92 NSCLC, in the assay with NCI-H23 lung, in the assay on 786-0 renal and with CAKI-1 renal was more than 100 µM throughout. In addition, the TGI with A549 NSCLC, with SF-268 CNS and in the assay on U251 CNS was more than 100 µM each time.
`CCOC(=O)CNC(=O)C(CSC(=O)N(C)O)NC(=O)CCC(N)C(=O)O` (centres undefined): the TGI in the assay with SR leukemia is 1.02 µM; in the assay on HOP-92 NSCLC, more than 2000 µM; in the assay with NCI-H23 lung, more than 2000 µM; in the assay with 786-0 renal, more than 2000 µM; in the assay on CAKI-1 renal, more than 2000 µM; with A549 NSCLC, more than 2000 µM. The TGI in the assay with SF-268 CNS and in the assay with U251 CNS was more than 2000 µM in each case. Also, the GI50 with LOX IMVI melanoma, in the assay with HOP-92 NSCLC, in the assay on NCI-H23 lung, in the assay on 786-0 renal, in the assay on CAKI-1 renal and in the assay with A549 NSCLC was more than 2000 µM each time. The GI50 in the assay with SF-268 CNS and in the assay with U251 CNS was more than 2000 µM in each case.
For the molecule `CCC[CH2][Sn]1([CH2]CCC)[O]C(=O)c2cc(C)ccc2[O]1`, the GI50 was 0.295 µM with SR leukemia; 0.309 µM in the assay with LOX IMVI melanoma; 0.327 µM in the assay with HOP-92 NSCLC; 0.332 µM in the assay on NCI-H23 lung; 0.215 µM in the assay with 786-0 renal; 0.169 µM in the assay on CAKI-1 renal. Further, the GI50 was 1.92 µM in the assay on A549 NSCLC, 0.268 µM with SF-268 CNS and 0.462 µM in the assay on U251 CNS. For the same molecule, the TGI in the assay with SR leukemia came out at 1.28 µM; in the assay on LOX IMVI melanoma, 1.13 µM; with HOP-92 NSCLC, 1.65 µM; in the assay on NCI-H23 lung it was 1.29 µM; in the assay with 786-0 renal, 0.844 µM; with CAKI-1 renal it was 0.785 µM. Besides, the TGI is 3.32 µM with A549 NSCLC, 0.959 µM with SF-268 CNS and 1.54 µM with U251 CNS.
Regarding `C=C=[CH][Sn]([c]1ccccc1)([c]1ccccc1)[c]1ccccc1`, the GI50 in the assay with SR leukemia was 1.32 µM; with LOX IMVI melanoma, 1.43 µM; in the assay on HOP-92 NSCLC, 0.593 µM; in the assay on NCI-H23 lung, 1.58 µM; in the assay on 786-0 renal it was 1.51 µM; in the assay with CAKI-1 renal it was 1.74 µM. For the same molecule, the GI50 in the assay with A549 NSCLC is 1.91 µM; with SF-268 CNS, 1.69 µM; with U251 CNS it was 1.66 µM. The TGI in the assay on SR leukemia worked out at 8.39 µM; in the assay on LOX IMVI melanoma, 2.87 µM; with HOP-92 NSCLC, 2.03 µM; in the assay on NCI-H23 lung, 3.47 µM; with 786-0 renal, 2.92 µM; with CAKI-1 renal, 4.29 µM. Besides, the values for the TGI with A549 NSCLC, in the assay with SF-268 CNS and in the assay with U251 CNS were 4.42 µM, 3.66 µM and 3.16 µM, respectively.
For the molecule `Nn1c(N=Nc2c(O)[nH]c3ccccc23)n[nH]c1=S`, the TGI with SR leukemia, in the assay on LOX IMVI melanoma, in the assay with HOP-92 NSCLC, in the assay on NCI-H23 lung, in the assay on 786-0 renal and in the assay with CAKI-1 renal was more than 100 µM in each case. Moreover, the TGI in the assay on A549 NSCLC, in the assay with SF-268 CNS and in the assay with U251 CNS was more than 100 µM each time.
In the case of `C[C@]12CCCC(=O)C1C[C@H](C(=O)O)CC2` (some centres undefined), the TGI with SR leukemia, with LOX IMVI melanoma, with HOP-92 NSCLC, in the assay on NCI-H23 lung, in the assay on 786-0 renal and with CAKI-1 renal was more than 100 µM each time. The TGI with A549 NSCLC, in the assay on SF-268 CNS and with U251 CNS was more than 100 µM in each case.
Consider `NNC(=S)N/N=C/C(Cl)=C(\Cl)C(=O)O`, for which the TGI in the assay with SR leukemia, with LOX IMVI melanoma, in the assay on HOP-92 NSCLC, with NCI-H23 lung, with 786-0 renal and in the assay with CAKI-1 renal was more than 100 µM throughout. Moreover, the TGI in the assay on A549 NSCLC, in the assay with SF-268 CNS and in the assay with U251 CNS was more than 100 µM in each case.
